Data as given in publication PMC11477426, “Interaction of Tri-Cyclic Nucleobase Analogs with Enzymes of Purine Metabolism: Xanthine Oxidase and Purine Nucleoside Phosphorylase” (International Journal of Molecular Sciences, 2024).
Blank lines part the entries; values can stand above or below the molecule they belong to.

Legend:
[1] = biological target: T1, purine nucleoside phosphorylase (WT PNP) (Escherichia coli, UniProt P0ABP8); assay: crystal structure ([…] Å) and isothermal titration calorimetry; format: binding
T1 construct: gene deoD; recombinant wild-type E. coli PNP, hexamer
T1 sequence (P0ABP8 2-239): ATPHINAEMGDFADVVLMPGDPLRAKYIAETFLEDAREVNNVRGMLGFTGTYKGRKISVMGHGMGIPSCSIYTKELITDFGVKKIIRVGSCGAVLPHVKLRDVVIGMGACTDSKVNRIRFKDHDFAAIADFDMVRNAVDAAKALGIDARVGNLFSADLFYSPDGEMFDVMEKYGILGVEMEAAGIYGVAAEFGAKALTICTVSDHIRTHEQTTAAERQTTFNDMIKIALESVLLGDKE

xanthine oxidase (XO) [2] = biological target: T2, xanthine oxidase (XO) (Bos taurus, UniProt P80457); assay: isothermal titration calorimetry (estimate only); weak substrate in oxidation assay; format: binding; design: gene XDH; commercial XO from bovine milk
T2 sequence (P80457 2-1332): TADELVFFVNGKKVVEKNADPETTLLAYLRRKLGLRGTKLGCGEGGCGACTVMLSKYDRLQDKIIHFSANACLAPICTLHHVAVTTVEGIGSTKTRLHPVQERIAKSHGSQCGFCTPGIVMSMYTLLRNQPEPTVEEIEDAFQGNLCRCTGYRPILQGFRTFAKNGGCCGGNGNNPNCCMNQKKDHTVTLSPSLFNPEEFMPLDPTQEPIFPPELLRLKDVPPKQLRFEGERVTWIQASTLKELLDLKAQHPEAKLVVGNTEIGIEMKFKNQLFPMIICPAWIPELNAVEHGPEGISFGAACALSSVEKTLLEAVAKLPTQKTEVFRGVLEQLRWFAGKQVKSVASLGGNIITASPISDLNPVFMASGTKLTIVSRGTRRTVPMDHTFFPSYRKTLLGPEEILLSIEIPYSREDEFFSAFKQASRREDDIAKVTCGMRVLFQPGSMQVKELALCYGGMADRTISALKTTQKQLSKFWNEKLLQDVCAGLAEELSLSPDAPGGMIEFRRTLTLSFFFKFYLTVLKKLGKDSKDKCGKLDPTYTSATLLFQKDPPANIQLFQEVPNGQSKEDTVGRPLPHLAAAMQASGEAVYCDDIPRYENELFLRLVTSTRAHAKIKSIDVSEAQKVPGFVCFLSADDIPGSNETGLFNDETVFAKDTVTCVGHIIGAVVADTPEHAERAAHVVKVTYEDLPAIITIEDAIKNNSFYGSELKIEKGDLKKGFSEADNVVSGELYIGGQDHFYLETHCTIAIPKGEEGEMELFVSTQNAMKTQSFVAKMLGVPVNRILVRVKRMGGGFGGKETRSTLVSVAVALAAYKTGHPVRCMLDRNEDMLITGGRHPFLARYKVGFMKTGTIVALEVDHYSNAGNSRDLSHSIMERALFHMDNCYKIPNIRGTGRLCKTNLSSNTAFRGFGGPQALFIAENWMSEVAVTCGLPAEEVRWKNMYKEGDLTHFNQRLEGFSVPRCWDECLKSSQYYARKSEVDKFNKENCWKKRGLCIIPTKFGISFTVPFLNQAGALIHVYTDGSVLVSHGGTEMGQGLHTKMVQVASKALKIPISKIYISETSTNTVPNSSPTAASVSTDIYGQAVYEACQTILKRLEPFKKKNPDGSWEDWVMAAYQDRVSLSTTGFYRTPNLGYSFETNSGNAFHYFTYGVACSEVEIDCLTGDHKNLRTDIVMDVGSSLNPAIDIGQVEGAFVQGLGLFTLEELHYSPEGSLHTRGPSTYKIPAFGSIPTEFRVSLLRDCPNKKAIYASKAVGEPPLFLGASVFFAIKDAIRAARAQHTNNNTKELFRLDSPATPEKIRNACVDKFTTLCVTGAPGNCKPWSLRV
Source text: isothermal titration calorimetry (estimate only); weak substrate in oxidation assay on xanthine oxidase (XO) | the endo- and exothermic processes were again observed.

xanthine oxidase (XO) [3] = biological target: T2, xanthine oxidase (XO); assay: competition with oxidation of I, fluorimetric assay, pH […]; format: biochemical; design: gene XDH; commercial XO from bovine milk (purified enzyme)
xanthine oxidase (XO) [4] = biological target: T2, xanthine oxidase (XO); assay: isothermal titration calorimetry (estimate only); also oxidation kinetics, apparent Km […] at pH […] and […] at pH […]; format: binding; design: gene XDH; commercial XO from bovine milk

SMILES: c1cn2c(n1)ncc1nc[nH]c12 [II, N^2,3-ε2APu]
Kd [1]: 36.2 µM
Kd (xanthine oxidase (XO) [2]): ~0.0075 µM

Ki (xanthine oxidase (XO) [3]): 3 µM
SMILES: O=c1[nH]c(=O)c2[nH]cnc2[nH]1 [xanthine]

Kd (xanthine oxidase (XO) [4]): ~0.0022 µM
SMILES: c1cn2cc3nc[nH]c3nc2n1 [I, 1,N^2-ε2APu]
